From patent US5733931A, “Cyclohexanediurea derivative and process for its production” (Nissin Food Products Co., Ltd., priority 1993, dated 1998)

Assays:
[1] = target: ACAT (Acyl-CoA: cholesterol acyltransferase) enzyme of rabbit liver microsome; assay: Inhibitory effect on ACAT enzyme (No.1), rabbit liver microsome; assay type: biochemical; settings: Table 9
Protocol: 1) Inhibitory effect on ACAT (Acyl-CoA: cholesterol acyltransferase) enzyme (No.1)
Compounds of the invention were tested for their inhibitory effects on ACAT enzyme of rabbit liver microsome by the method of J. G. Heider (J. of Lipid Res., vol. 24, 1127-1134, 1983). More specifically, the test was done by measuring the amount of labelled cholesterol oleate ester produced from oleic acid CoA (coenzyme A) labelled by radiation.

serum cholesterol [2] = assay: Serum cholesterol lowering effect in rat having high cholesterol [3-1]; assay type: in vivo, SD-type (Sprague-Dawley) male rat; settings: oral, once a day for 5 days, dissolved in saline, Table 12
Protocol: 3) Cholesterol Lowering Effect
[3-1] Using a rat having high cholesterol, compounds of the invention were tested for their serum cholesterol lowering effects by the following method. A 6-week-old SD-type (Sprague-Dawley) male rat was fed with food containing 1% of cholesterol, 0.5% of cholic acid and 5% of olive oil for 2 days and then orally administered the food and a compound of the invention as dissolved in saline once a day for 5 days starting on day 3. Four hours after the final administration, a blood sample was taken. The total cholesterol in the serum of the test group was measured and compared with that of the control group.

[3] = target: ACAT enzyme of rabbit liver microsomes; assay: Inhibitory effect on ACAT enzyme (No.2), rabbit liver microsomes; assay type: biochemical; settings: pH 7.4, 37° C., 60 minutes, Table 10
Protocol: (§1) 2) Inhibitory effect on ACAT (Acyl-CoA: cholesterol acyltransferase) enzyme (No.2)
(§2) [2-1] ACAT enzyme activities of rabbit liver and small intestine mucosa microsomes
(§3) A white male rabbit was fed with a […] cholesterol-containing food for four weeks and bleeding-slaughtered to extract its liver and small intestine. Microsomes of the liver and small intestine mucosa were prepared by the method of C. Marco et al. (Biochim. Biophys. Acta, 617, 458-471, 1980).
(§4) ACAT enzyme activities of the microsomes were determined by the method of J. G. Heider (J. Lipid Res., 24, 1127-1134, 1983). A test sample dissolved in 1% dimethylsulfoxide was added to a microsome fraction (100 μg), a phosphoric acid buffer (0.154M) having pH 7.4, 1-^14 C-oleoyl CoA (36 μM), dithiosleitol (2 mM) and bovine blood serum albumin (36 μg/ml). The reaction mixture adjusted to a final capacity of 0.5 ml was incubated at 37° C. for 60 minutes. A mixture (6 ml) of chloroform and methanol (2:1) was added and the reaction was stopped. Cholesterol oleate was extracted with chloroform and separated by thin-layer chromatography. ACAT enzyme activities of the microsome fractions were determined by radiation measurement.

[4] = target: T1, ACAT enzyme of rabbit small intestine mucosa microsomes (Oryctolagus cuniculus, UniProt G1SFD9); assay: Inhibitory effect on ACAT enzyme (No.2), rabbit small intestine mucosa microsomes; assay type: biochemical; settings: pH 7.4, 37° C., 60 minutes, Table 10
T1 construct: Microsomes of the liver and small intestine mucosa were prepared; from tissue; host or cells: small intestine mucosa microsomes of a cholesterol-fed white male rabbit
T1 sequence (G1SFD9 1-524): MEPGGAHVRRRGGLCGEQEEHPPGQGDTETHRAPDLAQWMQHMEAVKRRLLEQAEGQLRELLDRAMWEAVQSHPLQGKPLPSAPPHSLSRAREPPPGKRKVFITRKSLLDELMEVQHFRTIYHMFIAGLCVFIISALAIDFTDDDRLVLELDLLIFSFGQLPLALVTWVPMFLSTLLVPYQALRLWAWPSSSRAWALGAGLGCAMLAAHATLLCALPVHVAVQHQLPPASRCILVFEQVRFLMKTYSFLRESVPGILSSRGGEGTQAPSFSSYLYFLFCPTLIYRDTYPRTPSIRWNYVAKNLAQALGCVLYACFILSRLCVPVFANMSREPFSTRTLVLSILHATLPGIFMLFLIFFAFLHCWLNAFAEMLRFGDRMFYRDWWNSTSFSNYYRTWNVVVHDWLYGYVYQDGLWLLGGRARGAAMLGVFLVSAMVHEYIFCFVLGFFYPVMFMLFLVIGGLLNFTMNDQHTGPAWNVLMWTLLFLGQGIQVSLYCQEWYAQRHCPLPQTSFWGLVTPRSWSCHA
Protocol: as §1, §2, §3, §4

[5] = system: ACAT enzyme of human HepG2 cells; assay: ACAT enzyme activity of human HepG2 cells (microsome fractions); assay type: biochemical; settings: Table 11, read-out: IC50, inhibitory effect on ACAT enzyme activity, human HepG2
Protocol: as §4
(§5) [2-2] ACAT enzyme activities of human HepG2 and CaCo2 cells
(§6) Human HepG2 and CaCo2 cells purchased from ATCC (AMERICAN TYPE CULTURE COLLECTION) were used in this test.
(§7) Using RPMI 1640 medium for HepG2 and DMEM medium for CaCo2, HepG2 and CaCo2 cells were cultured with 40 ml of each medium containing 10% bovine blood serum, 50 I.U. of penicillin and 50 μg/ml of streptomycin in a 5% CO2 incubator at 37° C. The cells were then monolayer-culturedwith 80 ml of each medium containing […] of cholesterol and 5 μg/ml of 25-0H cholesterol in a 175 cm flask for 5 hours. The homogenizes of these cells were subjected to centrifugation at 105,000 g to collect microsome fractions. ACAT enzyme activities of the microsome fractions were determined by the above-mentioned method.

[6] = system: ACAT enzyme of human CaCo2 cells; assay: ACAT enzyme activity of human CaCo2 cells (microsome fractions); assay type: biochemical; settings: Table 11, read-out: IC50, inhibitory effect on ACAT enzyme activity, human CaCo2
Protocol: as §4, §5, §6, §7

serum cholesterol [7] = assay: Serum cholesterol lowering effect in rat having high cholesterol [3-2]; assay type: in vivo, SD-type (Sprague-Dawley) male rat; settings: oral, once a day for the last 5 days, Tween 80 and saline suspension, Table 13
Protocol: [3-2] Using a rat having high cholesterol, compounds of the invention were tested for their serum cholesterol lowering effects by the following method. A 6-week-old SD-type (Sprague-Dawley) male rat was fed with food containing 1% of cholesterol, 0.5% of cholic acid and 5% of olive oil for 7 days. For the last 5 days, a test sample suspended in some drops of Tween 80 and saline was orally administered once a day. Four hours after the final administration, a blood sample was taken from celiac aorta of the rat under etherization. The total cholesterol in the serum of the test group was measured by the oxygen method and compared with that of the control group.

IC50 [1] [nM]	IC50 [3] [nM]	IC50 [4] [nM]	IC50 [5] [nM]	IC50 [6] [nM]	SMILES	Cholesterol lowering effect, % (serum total cholesterol vs control group) (serum cholesterol [2]; 3 mg/kg) [%]	Cholesterol lowering effect, % (serum total cholesterol vs control group) (serum cholesterol [2]; 10 mg/kg) [%]	Cholesterol lowering effect, % (serum total cholesterol vs control group) (serum cholesterol [7]; 1 mg/kg) [%]	Cholesterol lowering effect, % (serum total cholesterol vs control group) (serum cholesterol [7]; 3 mg/kg) [%]
36	–	–	–	–	CN(C)c1ccc(NC(=O)N(C[C@H]2CCC[C@H](CN(C(=O)Nc3ccc(N(C)C)cc3)C3CCCCCC3)C2)C2CCCCCC2)cc1 (relative stereo) [Example 61, Trans-1,3-bis[[1-cycloheptyl-3-(4-dimethylaminophenyl)ureido]methyl]cyclohexane]	48	82	–	–
100	–	–	–	–	CN(C)c1ccc(NC(=O)N(CC(C)(C)C)C[C@H]2CC[C@H](CN(CC(C)(C)C)C(=O)Nc3ccc(N(C)C)cc3)CC2)cc1 [Example 7, Trans-1,4-bis[[3-(4-dimethylaminophenyl)-1-neopentylureido]methyl]cyclohexane]	105	103	–	–
47	–	–	–	–	CN(C)c1ccc(NC(=O)N(C[C@H]2CC[C@H](CN(C(=O)Nc3ccc(N(C)C)cc3)C3CCCC3)CC2)C2CCCC2)cc1 [Example 11, Trans-1,4-bis[[1-cyclopentyl-3-(4-dimethylaminophenyl)ureido]methyl]cyclohexane]	108	101	–	–
–	36	24	1.1	0.74	CN(C)c1ccc(NC(=O)N(C[C@H]2CC[C@H](CN(C(=O)Nc3ccc(N(C)C)cc3)C3CCCCC3)CC2)C2CCCCC2)cc1 [Example 12, Trans-1,4-bis[[1-cyclohexyl-3-(4-dimethylaminophenyl)ureido]methyl]cyclohexane]	–	–	96.2	92.6
–	78	29	1.5	1.5	CN(C)c1ccc(NC(=O)N(C[C@H]2CC[C@H](CN(C(=O)Nc3ccc(N(C)C)cc3)C3CCCCC3)CC2)C2CCCCC2)cc1 [Example 12-1, Trans-1,4-bis[[1-cyclohexyl-3-(4-dimethylaminophenyl)ureido]methyl]cyclohexane]	–	–	100.4	108.3
–	35	130	0.86	1.1	O=C(Nc1ccc(N2CCCCC2)cc1)N(C[C@H]1CC[C@H](CN(C(=O)Nc2ccc(N3CCCCC3)cc2)C2CCCCC2)CC1)C1CCCCC1 [Example 13, Trans-1,4-bis[[1-cyclohexyl-3-(4-piperidinophenyl)ureido]methyl]cyclohexane]	–	–	76.8	96.2
–	180	140	0.4	0.8	O=C(Nc1ccc(N2CCCC2)cc1)N(C[C@H]1CC[C@H](CN(C(=O)Nc2ccc(N3CCCC3)cc2)C2CCCCC2)CC1)C1CCCCC1 [Example 14-1, Trans-1,4-bis[[1-cyclohexyl-3-(4-pyrrolidinophenyl)ureido]methyl]cyclohexan]	–	–	80.9	96.2
–	62	52	0.27	1.6	O=C(Nc1ccc(N2CCCCCC2)cc1)N(C[C@H]1CC[C@H](CN(C(=O)Nc2ccc(N3CCCCCC3)cc2)C2CCCCC2)CC1)C1CCCCC1 [Example 14-2, Trans-1,4-bis[[1-cyclohexyl-3-(4-homopiperidinophenyl)ureido]methyl]cyclohexane]	–	–	–	–
–	–	–	–	–	O=C(Nc1ccc(N2CCOCC2)cc1)N(C[C@H]1CC[C@H](CN(C(=O)Nc2ccc(N3CCOCC3)cc2)C2CCCCC2)CC1)C1CCCCC1 [Example 14-4, Trans-1,4-bis[[1-cyclohexyl-3-(4-morpholinophenyl)ureido]methyl]cyclohexane]	–	–	79.9	98.8
38	–	–	–	–	CN(C)c1ccc(NC(=O)N(C[C@H]2CC[C@H](CN(C(=O)Nc3ccc(N(C)C)cc3)C3CCCCCC3)CC2)C2CCCCCC2)cc1 [Example 15, Trans-1,4-bis[[1-cycloheptyl-3-(4-dimethylaminophenyl)ureido]methyl]cyclohexane]	93	99	–	–
60	–	–	–	–	CN(C)c1ccc(NC(=O)N(C[C@H]2CC[C@@H](CN(C(=O)Nc3ccc(N(C)C)cc3)C3CCCCC3)CC2)C2CCCCC2)cc1 [Example 42, Cis-1,4-bis[[1-cyclohexyl-3-(4-dimethylaminophenyl)ureido]methyl]cyclohexane]	110	102	–	–
50	–	–	–	–	CN(C)c1ccc(NC(=O)N(C[C@H]2CC[C@@H](CN(C(=O)Nc3ccc(N(C)C)cc3)C3CCCCCC3)CC2)C2CCCCCC2)cc1 [Example 43, Cis-1,4-bis[[1-cycloheptyl-3-(4-dimethylaminophenyl)ureido]methyl]cyclohexane]	88	107	–	–
46	–	–	–	–	CN(C)c1ccc(NC(=O)N(C[C@@H]2CCC[C@H](CN(C(=O)Nc3ccc(N(C)C)cc3)C3CCCCCC3)C2)C2CCCCCC2)cc1 [Example 83, Cis-1,3-bis[[1-cycloheptyl-3-(4-dimethylaminophenyl)ureido]methyl]cyclohexane]	43	91	–	–
23	23	–	9.6	14	CN(C)c1ccc(NC(=O)N(Cc2cccc(CN(C(=O)Nc3ccc(N(C)C)cc3)C3CCCCCC3)c2)C2CCCCCC2)cc1 [YM-17E, reference compound]	38	91	–	38.0
